The values that follow come from patent US20080255107A1, “Fungicidal Mixtures Comprising N-[2-(Haloalk(Enyl)Oxy)Phenyl]Carboxamides” (BASF SE, priority 2005, published 2008).

What all share (assay type): in vivo
One test relates to Puccinia recondita. Description: Curative activity against brown rust of wheat caused by Puccinia recondita. As to conditions: single active compound, wheat seedlings, sprayed 1 day after inoculation, read after 7 days, efficacy in % of untreated control (Abbot). As to the method:
The active compounds, separately or jointly, were prepared as a stock solution comprising 25 mg of active compound which was made up to 10 ml using a mixture of acetone and/or dimethyl sulfoxide and the emulsifier Uniperol® EL (wetting agent having an emulsifying and dispersing action based on ethoxylated alkylphenols) in a ratio by volume of solvent/emulsifier of 99:1. The mixture was then made up to 100 ml with water. This stock solution was diluted with the solvent/emulsifier/water mixture described to give the concentration of active compound stated below. Alternatively, the active compounds triticonazole and pyraclostrobin were used as a commercial finished formulation and diluted with water to the stated active compound concentrations. The visually determined percentages of infected leaf areas were converted into efficacies in % of the untreated control: The efficacy (E) is calculated as follows using Abbot's formula: E=(1−α/β)·100 α corresponds to the fungicidal infection of the treated plants in % and β corresponds to the fungicidal infection of the untreated (control) plants in % An efficacy of 0 means that the infection level of the treated plants corresponds to that of the untreated control plants; an efficacy of 100 means that the treated plants were not infected. The expected efficacies of active compound combinations were determined using Colby's formula (Colby, S. R. “Calculating synergistic and antagonistic responses of herbicide combinations”, Weeds, 15, pp. 20-22, 1967) and compared with the observed efficacies. E=x+y−x·y/100 Colby's formula • E expected efficacy, expressed in % of the untreated control, when using the mixture of the active compounds A and B at the concentrations a and b; • x efficacy, expressed in % of the untreated control, when using the active compound A at the concentration a; • y efficacy, expressed in % of the untreated control, when using the active compound B at the concentration b. […] The extent of the rust fungus development on the leaves was then determined.

The test system of a further test is Botrytis cinerea. Kind of test: Activity against gray mold on bell pepper leaves caused by Botrytis cinerea, 1 day protective application. As to conditions: single active compound, assessed after 5 days. As to the method:
The active compounds, separately or jointly, were prepared as a stock solution comprising 25 mg of active compound which was made up to 10 ml using a mixture of acetone and/or dimethyl sulfoxide and the emulsifier Uniperol® EL (wetting agent having an emulsifying and dispersing action based on ethoxylated alkylphenols) in a ratio by volume of solvent/emulsifier of 99:1. The mixture was then made up to 100 ml with water. This stock solution was diluted with the solvent/emulsifier/water mixture described to give the concentration of active compound stated below. Alternatively, the active compounds triticonazole and pyraclostrobin were used as a commercial finished formulation and diluted with water to the stated active compound concentrations. The visually determined percentages of infected leaf areas were converted into efficacies in % of the untreated control: The efficacy (E) is calculated as follows using Abbot's formula: E=(1−α/β)·100 α corresponds to the fungicidal infection of the treated plants in % and β corresponds to the fungicidal infection of the untreated (control) plants in % An efficacy of 0 means that the infection level of the treated plants corresponds to that of the untreated control plants; an efficacy of 100 means that the treated plants were not infected. The expected efficacies of active compound combinations were determined using Colby's formula (Colby, S. R. “Calculating synergistic and antagonistic responses of herbicide combinations”, Weeds, 15, pp. 20-22, 1967) and compared with the observed efficacies. E=x+y−x·y/100 Colby's formula • E expected efficacy, expressed in % of the untreated control, when using the mixture of the active compounds A and B at the concentrations a and b; • x efficacy, expressed in % of the untreated control, when using the active compound A at the concentration a; • y efficacy, expressed in % of the untreated control, when using the active compound B at the concentration b. […] After 5 days, the extent of the fungal infection on the leaves could be determined visually in %.

For the next test, the system named is Alternaria solani. Kind of test: Activity against early blight of tomato caused by Alternaria solani (protective spray, potted tomato plants). To be noted: single active compound, 16 mg/l; tomato leaves, sprayed 1 day before infection, read after 5 days; efficacy in % of untreated control (Abbot). The method, then:
The active compounds, separately or jointly, were prepared as a stock solution comprising 25 mg of active compound which was made up to 10 ml using a mixture of acetone and/or dimethyl sulfoxide and the emulsifier Uniperol® EL (wetting agent having an emulsifying and dispersing action based on ethoxylated alkylphenols) in a ratio by volume of solvent/emulsifier of 99:1. The mixture was then made up to 100 ml with water. This stock solution was diluted with the solvent/emulsifier/water mixture described to give the concentration of active compound stated below. […] The visually determined percentages of infected leaf areas were converted into efficacies in % of the untreated control: The efficacy (E) is calculated as follows using Abbot's formula: E=(1−α/β)·100 α corresponds to the fungicidal infection of the treated plants in % and β corresponds to the fungicidal infection of the untreated (control) plants in % An efficacy of 0 means that the infection level of the treated plants corresponds to that of the untreated control plants; an efficacy of 100 means that the treated plants were not infected. The expected efficacies of active compound combinations were determined using Colby's formula (Colby, S. R. “Calculating synergistic and antagonistic responses of herbicide combinations”, Weeds, 15, pp. 20-22, 1967) and compared with the observed efficacies. […]

Regarding `COc1cc(C)c(C(=O)c2c(OC)ccc(Br)c2C)c(OC)c1OC` [Metrafenone, 3′-bromo-2,3,4,6′-tetramethoxy-2′,6-dimethylbenzophenone], the “Observed activity (% infection)” value in the test on Puccinia recondita (63 mg/l) and in the test on Botrytis cinerea (63 mg/l) was 0% throughout.

For the compound `COC(=O)N(OC)c1ccccc1COc1ccn(-c2ccc(Cl)cc2)n1` [pyraclostrobin], the “Observed activity (% infection)” value with Botrytis cinerea (16 mg/l) was determined as 11%. As to `CC1(C)CC/C(=C\c2ccc(Cl)cc2)C1(O)Cn1cncn1` (stereo not shown) [Triticonazole, (5E)-5-[(4-chlorophenyl)methylene]-2,2-dimethyl-1-(1H-1,2,4-triazol-1-ylmethyl)cyclopentanol], in the test with Puccinia recondita (0.25 mg/l), the “Observed activity (% infection)” value came to 0%. Besides, the “Observed efficacy (% of untreated control, Abbott)” value in the test on Alternaria solani amounted to 20%. As to `COc1ccc(C(=CC(=O)N2CCOCC2)c2ccc(Cl)cc2)cc1OC` [Dimethomorph, 3-(4-chlorophenyl)-3-(3,4-dimethoxyphenyl)-1-morpholin-4-yl-propenone], the “Observed activity (% infection)” value with Puccinia recondita (63 mg/l) and in the test with Botrytis cinerea (63 mg/l) was 0% in each case.
